From patent publication US20130131073A1, “FUSED-IMIDAZOYL COMPOUNDS USEFUL AS ANTIMICROBIAL AGENTS” (priority 2010, published 2013)
Converted amounts (≈) assume the structure as drawn.

Tested on: Staphylococcus aureus ATCC29213
Assay: Broth microdilution susceptibility testing (MIC determination)
Assay type: cell-based
Details: Mueller Hinton broth, overnight incubation at 35° C., lowest concentration preventing visible growth, read-out: MIC Staph. aureus ATCC29213
Protocol: Susceptibility testing (MIC determinations) was performed using the standard broth microdilution methodology precisely as described in the Clinical Laboratory Standards Institute Document M7-A6; Methods for Dilution Antimicrobial Susceptibility Tests for Bacteria That Grow Aerobically; Approved Standard- Sixth Edition (ISBN 1-56238-486-4), CLSI, 940 West Valley Road, Suite 1400, Wayne, Pa. 19087-1898 USA. To perform the test, a series of 0.1 ml media in a 96-well plate is prepared with Mueller Hinton broth to which various concentrations of the test compound are added. The media are then inoculated with a standardized suspension of the test organism, Staphylococcus aureus ATCC29213. After overnight incubation at 35° C., the tests are examined and the minimal inhibitory concentration (MIC) is determined. MIC is defined as the lowest concentration of an antimicrobial agent that prevents visible growth of a microorganism in the broth microdilution susceptibility test

Row | Compound | MIC
1 | CN(C)c1ccc(-c2nc3cnccn3c2NCC(=O)N2CCN(c3c(Cl)cncc3Cl)CC2)cc1 [compound 31] | 0.08 µg/mL (≈ 0.152 µM)
2 | COc1cc(OC)nc(CN2CCN(C(=O)CNc3c(-c4ccc(OC(F)(F)F)cc4)nc4cnccn34)CC2)n1 [compound 280] | 10 µg/mL (≈ 17.5 µM)
3 | O=C(CNc1c(-c2ccc(OC(F)(F)F)cc2)nc2cnccn12)N1CCN(c2ccncc2)CC1 [compound 269] | 1.25 µg/mL (≈ 2.51 µM)
4 | COCCCN1CCN(C(=O)CNc2c(-c3ccc(OC(F)(F)F)cc3)nc3cnccn23)CC1 [compound 281] | 5 µg/mL (≈ 10.2 µM)
5 | CC(Nc1c(-c2ccc(OC(F)(F)F)cc2)nc2cnccn12)C(=O)N1CCN(C)CC1 (centres unmarked) [compound 184] | 5 µg/mL (≈ 11.1 µM)
6 | O=C(CNc1c(-c2ccc(OC(F)(F)F)cc2)nc2cnccn12)N1CCN(c2ccccc2Cl)CC1 [compound 270] | 10 µg/mL (≈ 18.8 µM)
7 | CN1CCN(C(=O)CNc2c(-c3ccc(OC(F)(F)F)cc3)nc3cnccn23)CC1 [compound 268] | 10 µg/mL (≈ 23 µM)
8 | Cc1cccc(N2CCN(C(=O)C(C)Nc3c(-c4ccc(OC(F)(F)F)cc4)nc4cnccn34)CC2C)c1 (centres unmarked) [compound 318] | 10 µg/mL (≈ 18.6 µM)

Continued by falling MIC, values first:

Row | MIC | Compound
9 | 10 µg/mL (≈ 19.1 µM) | Cc1cccc(N2CCN(C(=O)CNc3c(-c4ccc(OC(F)(F)F)cc4)nc4cnccn34)CC2)c1C [compound 276]
10 | 10 µg/mL (≈ 19.1 µM) | CC(c1ccccc1)N1CCN(C(=O)CNc2c(-c3ccc(OC(F)(F)F)cc3)nc3cnccn23)CC1 (centres unmarked) [compound 295]
11 | 10 µg/mL (≈ 18 µM) | O=C(CNc1c(-c2ccc(OC(F)(F)F)cc2)nc2cnccn12)N1CCN(C(=O)OCc2ccccc2)CC1 [compound 275]
12 | 5 µg/mL (≈ 8.61 µM) | O=C(CNc1c(-c2ccc(OC(F)(F)F)cc2)nc2cnccn12)N1CCN(c2nc(-c3ccccc3)ns2)CC1 [compound 282]
13 | 5 µg/mL (≈ 10.5 µM) | C=CCN1CCN(C(=O)C(C)Nc2c(-c3ccc(OC(F)(F)F)cc3)nc3cnccn23)CC1 (centres unmarked) [compound 189]
14 | 2.5 µg/mL (≈ 4.71 µM) | O=C(CNc1c(-c2ccc(OC(F)(F)F)cc2)nc2cnccn12)N1CCN(CCC2CCCCC2)CC1 [compound 277]
15 | 2 µg/mL (≈ 4.14 µM) | Cc1cccc(C)c1N1CCN(C(=O)CNc2c(-c3ccc(N(C)C)cc3)nc3cnccn23)CC1 [compound 26]
16 | 1.25 µg/mL (≈ 2.87 µM) | CC(=O)N1CCN(C(=O)C(C)Nc2c(-c3ccc(N(C)C)cc3)nc3cnccn23)CC1 (centres unmarked) [compound 102]
17 | 0.08 µg/mL (≈ 0.141 µM) | O=C(CNc1c(-c2ccc(OC(F)(F)F)cc2)nc2cnccn12)N1CCN(c2c(Cl)cncc2Cl)CC1 [compound 274]
